According to PubChem BioAssay (NCI):
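Step 1: Grow cells in 96-well plates. Step 2: Expose to compound for 48 hours at 5 concentrations. Step 3: Interpolate endpoints linearly; if unreached, use highest concentration. At the GI50, growth is halved. TGI: concentration producing complete growth inhibition.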

Test system: COLO 205 colon
Assay: growth of human tumour cells (NCI), 48 h

Going from `CCc1nc(N)nc(N)c1-c1ccc(NC)c([N+](=O)[O-])c1` to `Clc1ccc(-c2cc3nc4ccccc4nc3o2)cc1`, the TGI rises from 34.4 µM to greater than 100 µM.

`CCOP(=O)(OCC)C(c1ccc(F)cc1)N(C(=O)NC(F)(F)F)c1cccc(C(F)(F)F)c1` (stereo not given) and `O=C1c2cccnc2-c2nc(-c3ccc(Cl)cc3)cc3c2c1nc1ccccc13` cannot be ordered by TGI: greater than 100 µM for the first, greater than 100 µM for the second.

With `O=C1c2cccnc2-c2nc(-c3ccc(Cl)cc3)cc3c2c1nc1ccccc13` the GI50 was greater than 100 µM.

Test system: BT-549 breast
Assay: growth of human tumour cells (NCI), 48 h

Compared with `Cc1cc2nc(C=C(C(F)(F)F)C(F)(F)F)oc2cc1C`, `CCOP(=O)(OCC)C(c1ccc(F)cc1)N(C(=O)NC(F)(F)F)c1cccc(C(F)(F)F)c1` (stereo not given) is higher in TGI: 6.13 µM for the first, greater than 100 µM for the second.

`CCc1nc(N)nc(N)c1-c1ccc(NC)c([N+](=O)[O-])c1` and `Clc1ccc(-c2cc3nc4ccccc4nc3o2)cc1` cannot be ordered by TGI: greater than 100 µM for the first, greater than 100 µM for the second.

For `O=C1c2cccnc2-c2nc(-c3ccc(Cl)cc3)cc3c2c1nc1ccccc13`, the TGI was 51.1 µM.

Molecule `O=C1c2cccnc2-c2nc(-c3ccc(Cl)cc3)cc3c2c1nc1ccccc13` has a GI50 of 18 µM.

Test system: SF-539 CNS
Assay: growth of human tumour cells (NCI), 48 h

First: Cc1cc2nc(C=C(C(F)(F)F)C(F)(F)F)oc2cc1C
Second: CCOP(=O)(OCC)C(c1ccc(F)cc1)N(C(=O)NC(F)(F)F)c1cccc(C(F)(F)F)c1 (stereo not given)
The TGI of the first is lower: 6.43 µM for the first, greater than 100 µM for the second.

`CCc1nc(N)nc(N)c1-c1ccc(NC)c([N+](=O)[O-])c1` and `Clc1ccc(-c2cc3nc4ccccc4nc3o2)cc1` cannot be ordered by TGI: greater than 100 µM for the first, greater than 100 µM for the second.

`O=C1c2cccnc2-c2nc(-c3ccc(Cl)cc3)cc3c2c1nc1ccccc13` gave a TGI greater than 100 µM.

`O=C1c2cccnc2-c2nc(-c3ccc(Cl)cc3)cc3c2c1nc1ccccc13` showed a GI50 of 59.8 µM.

Test system: OVCAR-8 ovarian
Assay: growth of human tumour cells (NCI), 48 h

First: Cc1cc2nc(C=C(C(F)(F)F)C(F)(F)F)oc2cc1C
Second: CCOP(=O)(OCC)C(c1ccc(F)cc1)N(C(=O)NC(F)(F)F)c1cccc(C(F)(F)F)c1 (stereo not given)
The TGI of the first is lower: 6.68 µM for the first, greater than 100 µM for the second.

`CCc1nc(N)nc(N)c1-c1ccc(NC)c([N+](=O)[O-])c1` and `Clc1ccc(-c2cc3nc4ccccc4nc3o2)cc1` cannot be ordered by TGI: greater than 100 µM for the first, greater than 100 µM for the second.

Going from `O=C1c2cccnc2-c2nc(-c3ccc(Cl)cc3)cc3c2c1nc1ccccc13` to `COc1c(C)cc2c(c1O)C1C3[C@H]4SC[C@@]5(NCCC6=C5NC5C=CC=CC65)C(=O)OCC(c5c6c(c(C)c(OC(C)=O)c54)OCO6)N3[C@@H](O)C(C2)N1C` (stereo not given in full), the TGI falls from greater than 100 µM to less than 0.01 µM.

Molecule `O=C1c2cccnc2-c2nc(-c3ccc(Cl)cc3)cc3c2c1nc1ccccc13` has a GI50 of 98.4 µM.

Test system: CAKI-1 renal
Assay: growth of human tumour cells (NCI), 48 h

Compared with `Cc1cc2nc(C=C(C(F)(F)F)C(F)(F)F)oc2cc1C`, `CCOP(=O)(OCC)C(c1ccc(F)cc1)N(C(=O)NC(F)(F)F)c1cccc(C(F)(F)F)c1` (stereo not given) is higher in TGI: 7.23 µM for the first, greater than 100 µM for the second.

`CCc1nc(N)nc(N)c1-c1ccc(NC)c([N+](=O)[O-])c1` and `Clc1ccc(-c2cc3nc4ccccc4nc3o2)cc1` cannot be ordered by TGI: greater than 79 µM for the first, greater than 100 µM for the second.

`O=C1c2cccnc2-c2nc(-c3ccc(Cl)cc3)cc3c2c1nc1ccccc13` was tested, and the TGI was greater than 100 µM.

For `O=C1c2cccnc2-c2nc(-c3ccc(Cl)cc3)cc3c2c1nc1ccccc13`, the GI50 was 67.7 µM.

Test system: SF-295 CNS
Assay: growth of human tumour cells (NCI), 48 h

`Cc1cc2nc(C=C(C(F)(F)F)C(F)(F)F)oc2cc1C` and `CCOP(=O)(OCC)C(c1ccc(F)cc1)N(C(=O)NC(F)(F)F)c1cccc(C(F)(F)F)c1` (stereo not given) cannot be ordered by TGI: greater than 10 µM for the first, greater than 100 µM for the second.

`CCc1nc(N)nc(N)c1-c1ccc(NC)c([N+](=O)[O-])c1` and `Clc1ccc(-c2cc3nc4ccccc4nc3o2)cc1` cannot be ordered by TGI: greater than 94.7 µM for the first, greater than 100 µM for the second.

Molecule `O=C1c2cccnc2-c2nc(-c3ccc(Cl)cc3)cc3c2c1nc1ccccc13` has a TGI greater than 100 µM.

`O=C1c2cccnc2-c2nc(-c3ccc(Cl)cc3)cc3c2c1nc1ccccc13` gave a GI50 of 22.9 µM.

Test system: HCT-116 colon
Assay: growth of human tumour cells (NCI), 48 h

Compared with `Cc1cc2nc(C=C(C(F)(F)F)C(F)(F)F)oc2cc1C`, `CCOP(=O)(OCC)C(c1ccc(F)cc1)N(C(=O)NC(F)(F)F)c1cccc(C(F)(F)F)c1` (stereo not given) is higher in TGI: 2.72 µM for the first, greater than 100 µM for the second.

`CCc1nc(N)nc(N)c1-c1ccc(NC)c([N+](=O)[O-])c1` and `Clc1ccc(-c2cc3nc4ccccc4nc3o2)cc1` cannot be ordered by TGI: greater than 100 µM for the first, greater than 100 µM for the second.

`O=C1c2cccnc2-c2nc(-c3ccc(Cl)cc3)cc3c2c1nc1ccccc13` and `COc1c(C)cc2c(c1O)C1C3[C@H]4SC[C@@]5(NCCC6=C5NC5C=CC=CC65)C(=O)OCC(c5c6c(c(C)c(OC(C)=O)c54)OCO6)N3[C@@H](O)C(C2)N1C` (stereo not given in full) cannot be ordered by TGI: greater than 100 µM for the first, greater than 100 µM for the second.

For `O=C1c2cccnc2-c2nc(-c3ccc(Cl)cc3)cc3c2c1nc1ccccc13`, the GI50 was 28.4 µM.

Test system: MDA-MB-435
Assay: growth of human tumour cells (NCI), 48 h

Going from `Cc1cc2nc(C=C(C(F)(F)F)C(F)(F)F)oc2cc1C` to `CCOP(=O)(OCC)C(c1ccc(F)cc1)N(C(=O)NC(F)(F)F)c1cccc(C(F)(F)F)c1` (stereo not given), the TGI rises from 4.21 µM to greater than 100 µM.

`CCc1nc(N)nc(N)c1-c1ccc(NC)c([N+](=O)[O-])c1` and `Clc1ccc(-c2cc3nc4ccccc4nc3o2)cc1` cannot be ordered by TGI: greater than 100 µM for the first, greater than 100 µM for the second.

Work on `O=C1c2cccnc2-c2nc(-c3ccc(Cl)cc3)cc3c2c1nc1ccccc13` yielded a TGI of 86.4 µM.

Work on `O=C1c2cccnc2-c2nc(-c3ccc(Cl)cc3)cc3c2c1nc1ccccc13` yielded a GI50 of 22.5 µM.

Test system: SK-OV-3 ovarian
Assay: growth of human tumour cells (NCI), 48 h

`Cc1cc2nc(C=C(C(F)(F)F)C(F)(F)F)oc2cc1C` and `CCOP(=O)(OCC)C(c1ccc(F)cc1)N(C(=O)NC(F)(F)F)c1cccc(C(F)(F)F)c1` (stereo not given) cannot be ordered by TGI: greater than 10 µM for the first, greater than 100 µM for the second.

`CCc1nc(N)nc(N)c1-c1ccc(NC)c([N+](=O)[O-])c1` and `Clc1ccc(-c2cc3nc4ccccc4nc3o2)cc1` cannot be ordered by TGI: greater than 100 µM for the first, greater than 100 µM for the second.

Test system: RXF 393 renal
Assay: growth of human tumour cells (NCI), 48 h

Compared with `Cc1cc2nc(C=C(C(F)(F)F)C(F)(F)F)oc2cc1C`, `CCOP(=O)(OCC)C(c1ccc(F)cc1)N(C(=O)NC(F)(F)F)c1cccc(C(F)(F)F)c1` (stereo not given) is higher in TGI: 4.92 µM for the first, greater than 100 µM for the second.

Compared with `CCc1nc(N)nc(N)c1-c1ccc(NC)c([N+](=O)[O-])c1`, `Clc1ccc(-c2cc3nc4ccccc4nc3o2)cc1` is lower in TGI: greater than 93.3 µM for the first, 90 µM for the second.

First: O=C1c2cccnc2-c2nc(-c3ccc(Cl)cc3)cc3c2c1nc1ccccc13
Second: COc1c(C)cc2c(c1O)C1C3[C@H]4SC[C@@]5(NCCC6=C5NC5C=CC=CC65)C(=O)OCC(c5c6c(c(C)c(OC(C)=O)c54)OCO6)N3[C@@H](O)C(C2)N1C (stereo not given in full)
The TGI of the first is higher: greater than 100 µM for the first, less than 0.01 µM for the second.

`O=C1c2cccnc2-c2nc(-c3ccc(Cl)cc3)cc3c2c1nc1ccccc13` showed a GI50 of 30.8 µM.

Test system: UO-31 renal
Assay: growth of human tumour cells (NCI), 48 h

`Cc1cc2nc(C=C(C(F)(F)F)C(F)(F)F)oc2cc1C` and `CCOP(=O)(OCC)C(c1ccc(F)cc1)N(C(=O)NC(F)(F)F)c1cccc(C(F)(F)F)c1` (stereo not given) cannot be ordered by TGI: greater than 10 µM for the first, greater than 100 µM for the second.

`CCc1nc(N)nc(N)c1-c1ccc(NC)c([N+](=O)[O-])c1` and `Clc1ccc(-c2cc3nc4ccccc4nc3o2)cc1` cannot be ordered by TGI: greater than 100 µM for the first, greater than 100 µM for the second.

First: O=C1c2cccnc2-c2nc(-c3ccc(Cl)cc3)cc3c2c1nc1ccccc13
Second: COc1c(C)cc2c(c1O)C1C3[C@H]4SC[C@@]5(NCCC6=C5NC5C=CC=CC65)C(=O)OCC(c5c6c(c(C)c(OC(C)=O)c54)OCO6)N3[C@@H](O)C(C2)N1C (stereo not given in full)
The TGI of the first is higher: greater than 100 µM for the first, 0.0112 µM for the second.

Molecule `O=C1c2cccnc2-c2nc(-c3ccc(Cl)cc3)cc3c2c1nc1ccccc13` has a GI50 of 46.9 µM.

Test system: M14 melanoma
Assay: growth of human tumour cells (NCI), 48 h

First: Cc1cc2nc(C=C(C(F)(F)F)C(F)(F)F)oc2cc1C
Second: CCOP(=O)(OCC)C(c1ccc(F)cc1)N(C(=O)NC(F)(F)F)c1cccc(C(F)(F)F)c1 (stereo not given)
The TGI of the first is lower: 5.03 µM for the first, greater than 100 µM for the second.

`CCc1nc(N)nc(N)c1-c1ccc(NC)c([N+](=O)[O-])c1` and `Clc1ccc(-c2cc3nc4ccccc4nc3o2)cc1` cannot be ordered by TGI: greater than 100 µM for the first, greater than 100 µM for the second.

Work on `O=C1c2cccnc2-c2nc(-c3ccc(Cl)cc3)cc3c2c1nc1ccccc13` yielded a TGI of 58 µM.

Molecule `O=C1c2cccnc2-c2nc(-c3ccc(Cl)cc3)cc3c2c1nc1ccccc13` has a GI50 of 19.9 µM.

Test system: DLD-1 colon
Assay: growth of human tumour cells (NCI), 48 h

Molecule `COc1c(C)cc2c(c1O)C1C3[C@H]4SC[C@@]5(NCCC6=C5NC5C=CC=CC65)C(=O)OCC(c5c6c(c(C)c(OC(C)=O)c54)OCO6)N3[C@@H](O)C(C2)N1C` (stereo not given in full) has a TGI of 1.92 µM.

Test system: SK-MEL-28 melanoma
Assay: growth of human tumour cells (NCI), 48 h

`Cc1cc2nc(C=C(C(F)(F)F)C(F)(F)F)oc2cc1C` and `CCOP(=O)(OCC)C(c1ccc(F)cc1)N(C(=O)NC(F)(F)F)c1cccc(C(F)(F)F)c1` (stereo not given) cannot be ordered by TGI: greater than 10 µM for the first, greater than 100 µM for the second.

`CCc1nc(N)nc(N)c1-c1ccc(NC)c([N+](=O)[O-])c1` and `Clc1ccc(-c2cc3nc4ccccc4nc3o2)cc1` cannot be ordered by TGI: greater than 100 µM for the first, greater than 100 µM for the second.

`O=C1c2cccnc2-c2nc(-c3ccc(Cl)cc3)cc3c2c1nc1ccccc13` was tested, and the TGI was greater than 100 µM.

Work on `O=C1c2cccnc2-c2nc(-c3ccc(Cl)cc3)cc3c2c1nc1ccccc13` yielded a GI50 of 34.7 µM.

Test system: SR leukemia
Assay: growth of human tumour cells (NCI), 48 h

`Cc1cc2nc(C=C(C(F)(F)F)C(F)(F)F)oc2cc1C` and `CCOP(=O)(OCC)C(c1ccc(F)cc1)N(C(=O)NC(F)(F)F)c1cccc(C(F)(F)F)c1` (stereo not given) cannot be ordered by TGI: greater than 10 µM for the first, greater than 100 µM for the second.

`CCc1nc(N)nc(N)c1-c1ccc(NC)c([N+](=O)[O-])c1` and `Clc1ccc(-c2cc3nc4ccccc4nc3o2)cc1` cannot be ordered by TGI: greater than 29.4 µM for the first, greater than 100 µM for the second.

`O=C1c2cccnc2-c2nc(-c3ccc(Cl)cc3)cc3c2c1nc1ccccc13` and `COc1c(C)cc2c(c1O)C1C3[C@H]4SC[C@@]5(NCCC6=C5NC5C=CC=CC65)C(=O)OCC(c5c6c(c(C)c(OC(C)=O)c54)OCO6)N3[C@@H](O)C(C2)N1C` (stereo not given in full) cannot be ordered by TGI: greater than 100 µM for the first, greater than 100 µM for the second.

`O=C1c2cccnc2-c2nc(-c3ccc(Cl)cc3)cc3c2c1nc1ccccc13` gave a GI50 of 7.38 µM.

Test system: HL-60(TB) leukemia
Assay: growth of human tumour cells (NCI), 48 h

First: Cc1cc2nc(C=C(C(F)(F)F)C(F)(F)F)oc2cc1C
Second: CCOP(=O)(OCC)C(c1ccc(F)cc1)N(C(=O)NC(F)(F)F)c1cccc(C(F)(F)F)c1 (stereo not given)
The TGI of the first is lower: 5.03 µM for the first, greater than 100 µM for the second.

In the case of `CCc1nc(N)nc(N)c1-c1ccc(NC)c([N+](=O)[O-])c1`, the TGI is reported as greater than 51.8 µM.
